Each structure is given as a SMILES string.

Common to all, as to format: in vivo, rat
In one series the test system is bone marrow of SD rats. The experiment in a line: Immunofluorescence staining of the bone marrow microenvironment (nestin, TH, CD31). As for the experimental part:
The testing utilized immunofluorescence staining of nestin for mesenchymal stem cell, tyrosine hydroxylase (TH+) for sympathetic nerve, and CD31 for vascular to evaluate the alteration of bone marrow microenvironment after […] of carboplatin.
After two cycles of chemotherapy, exemplified as using carboplatin with different dosages of 40 mg/kg and 60 mg/kg, the bone marrow of the rats from the five experimental groups was analyzed by immunofluorescence to evaluate the alteration of the bone marrow microenvironment. The bone marrow tissue of rats was stained with nestin, TH and anti-CD31 antibody for mesenchymal stem cell, sympathetic nerve and endothelial cell, respectively.

Series [1] concerns SD rats. In words: Chemotherapy-induced cytopenia, complete blood count of peripheral blood. As for the experimental part: (§1) In FIG. 7A is seen white blood cell concentration for each of the five groups of rats which were tested over two cycles of testing. Male SD rats (weighing 350 to 400 g) were used for studying chemotherapy-induced cytopenia. The rats were divided into five experimental groups: control group; electrical stimulation group; carboplatin group; carboplatin+electrical stimulation (ES) group; and carboplatin+G-CSF group.
(§2) For each cycle of treatment, a single dose of carboplatin (e.g., 60 mg/kg) or vehicle (saline) was injected intraperitoneally on day 0. On day 2, electrical autonomic nerve stimulation was performed for a specified period (e.g., 60 minutes), or a single dose of G-CSF was administered on the rats according to the different experimental groups. In the example treatment each cycle of treatment is considered to be 28 days, however, a treatment cycle could span from one to eight weeks.
Blood samples for complete blood count (CBC) were collected in EDTA tubes on various days (day 0, 2, 7, 10, 14, 17, 21, and 28).

For series [2], the system named is SD rats. In words: Survival of rats after two cycles of carboplatin chemotherapy. The settings on record: after two cycles of carboplatin over a period of 60 days; carboplatin 60 mg/kg intraperitoneally on day 0, ES or G-CSF on day 2. As for the experimental part: as §1, §2
FIG. 10 illustrates an example embodiment 590 of results indicating survival rates of the rats in the same five groups (control, ES, carboplatin, carboplatin+ES, and carboplatin+G-CSF) as previously described after two cycles of carboplatin over a period of 60 days.

[3] abbreviates: after three cycles of carboplatin.
Setting [4] is: after two cycles of carboplatin, 40 mg/kg and 60 mg/kg.

In the case of `N.N.O=C([O-])C1(C(=O)[O-])CCC1.[Pt+2]` [carboplatin], in the series on bone marrow of SD rats (setting [3]), the “area of TH+/CD31 by immunofluorescence staining versus control group” value was “lower levels”, the “expression of TH+ in the sympathetic nerve” value is recorded as “reduced expression” and the “expression of nestin (mesenchymal stem cell) in comparison to the control group” value is reported as “more extensive expression”. Further, in the series with bone marrow of SD rats (setting [4]), the “area of the sympathetic nerve along with arteriole compared to the control group” value is listed as “significantly decreased” and the “mesenchymal stem cells compared to the control group” value is on record as “increased”. Besides, in the series with SD rats [1] (after carboplatin administration, whether rescue by electrical stimulation or G-CSF), the concentration of hemoglobin result is on record as “significantly decreased”. For the same molecule, the “platelet count compared to the control group” value in the series on SD rats [1] (day 10 of the first and second cycle) is on record as “significantly reduced”. In the series on SD rats [2], this molecule came in with a survival rate of 37.5%.

The record behind these values is patent US12544575B2, “Bioelectric neuromodulation for hematopoiesis regulation during chemotherapy” (THE REGENTS OF THE UNIVERSITY OF CALIFORNIA, priority 2020, dated 2026).
